Blank lines part the entries; values can stand above or below the substance they belong to.
What was measured:
[1] = system: 14-3-3σ; assay: Covalent labeling of 14-3-3σ by peptides, intact protein LC/MS; assay type: binding, human; conditions: 5 µM peptide, 2 µM 14-3-3σ; for 14-3-3σ full peptide adduct (degree of labeling): 25 °C; for degree of labeling of 14-3-3σ: 37 C
Method: The LC/MS runs for 14-3-3σ were performed on a Waters ACQUITY UPLC class H instrument, in positive ion mode using electrospray ionization. […] The column was held at 40 °C and the autosampler at 10 °C. […] The run flow was 0.4 mL/min. […] The MS data were collected on a Waters SQD2 detector with an m/z range of 2–3071.98 at a range of 900–1900 m/z. The desolvation temperature was 500 °C with a flow rate of 800 L/h. The voltages used were 1.00 kV for the capillary and 24 V for the cone. MassLynx version 4.2 was used to operate the LCMS and analyze the data. Raw data were processed using openLYNX and deconvoluted using MaxEnt with a range of 28,000: 34,000 Da and a resolution of 1 Da/channel. […] For analysis, 24 μl sample was mixed with 6 μl of 2.4% formic acid in water and then 10 μl were injected to intact protein LCMS.

[2] = system: 14-3-3 proteins in A549 lysates; assay: Labeling of 14-3-3 proteins by BODIPY-modified peptides in A549 lysates (SDS-PAGE fluorescence, western blot); assay type: binding; conditions: BODIPY-labeled derivatives of the peptides; 1 µM (peptides 3, 8) or 0.25 µM (peptide 12), lysate […], 25 °C, 1 h or 22 h
Method: A549 cells were obtained from biological services of the Weizmann Institute. For experiments in lysates, A549 cells were grown in DMEM + FBS. The cells were washed with PBS, scraped from the plate and centrifuged 200 × g for 5 min. […] Cells were incubated in the lysis buffer and centrifuged at 21,000 × g for 10 min at 4 °C. The protein concentration was estimated using BCA, and the lysate was diluted to 1.9 mg/ml in the lysis buffer. […] Then, 13.3 μl of 4X LDS samples buffer with 20 mM DTT was added and the samples were heated for 10 min at 70 °C. The samples were loaded on Bis-Tris gradient gels (4-20%, Genscript) and run using Tris-MOPS buffer at 60 mA/200 V. […] Images were processed and generated using ImageLab. […] Afterwards the gel was directly imaged in ChemiDoc. page 8: Supplementary Figure 7. Peptide binding selectivity in cell lysates and media. a) Raw images for the western blot experiment depicted in figure 5. Experiments was repeated 3 times. Top row: images for experiment done on A549 lysates. Bottom row: Images from extracellular medium. b) Direct gel imaging for experiment in which 1 μ[…] lysates at the indicated concentrations for 22 hours at 25°C. The same amount of lysate was loaded in each lane (28.5 μg). The intense fluorescence at the bottom comes from unbound peptide.

[3] = system: 14-3-3 proteins in extracellular medium of A549 cells; assay: Detection of 14-3-3 proteins by BODIPY-modified peptides in extracellular medium of A549 cells; assay type: binding; conditions: BODIPY-labeled derivatives; concentrated serum-free medium of A549 cells grown 24 h or 48 h
Method: For experiments in medium, after growing the cells they were transferred to DMEM without FBS, followed by incubation for either 24 h or 48 h. After the incubation, 8.5 ml of the medium was filtered through a 0.2 µm filter, concentrated using a centrifugal concentrator (vivaspin, cutoff 8000–10,000 Da) to ~200 µl, and diluted to 8 ml using HEPES 50 mM pH = 7.5, 150 mM NaCl. This was followed by 2 additional rounds of dilution and concentration to ~200 µl. The samples were then diluted to 300 µl with IGEPAL added to 1% as well as protease inhibitors and PhosStop. 38 µl samples from the medium were then incubated with the peptides and analyzed as performed for the lysate, with 15 s exposure for fluorescence and 50 second exposure for chemiluminescence.

[4] = molecular target: human 14-3-3σ with an N-terminal His6-tag (human) (UniProt P31947)
[5] = molecular target: human 14-3-3σ with an N-terminal His6-tag (human) (UniProt P31947); remark: listed apart in the source
[6] = molecular target: human 14-3-3σ with an N-terminal His6-tag (human) (UniProt P31947); remark: listed apart in the source

Sequence of UniProt P31947 (P31947 whole entry): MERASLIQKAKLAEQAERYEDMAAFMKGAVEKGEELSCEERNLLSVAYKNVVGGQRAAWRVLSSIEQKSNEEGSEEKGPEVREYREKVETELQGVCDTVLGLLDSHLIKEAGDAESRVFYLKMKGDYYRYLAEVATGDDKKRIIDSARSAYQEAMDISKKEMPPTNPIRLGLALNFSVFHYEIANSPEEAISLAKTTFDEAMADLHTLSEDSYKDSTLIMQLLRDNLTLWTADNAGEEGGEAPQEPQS

Substance: Ac-RAH-(pT)-(mC)-PASLQ-NH2 [Peptide 8, Methacrylate phosphopeptide derived from YAP-1 (PDB 3MHR)]
14-3-3σ full peptide adduct (degree of labeling) ([1]; intact protein LC/MS, time 0 h): 0
14-3-3σ full peptide adduct (degree of labeling) ([1]; time 1 h (60 min)): 34.14
14-3-3σ full peptide adduct (degree of labeling) ([1]; time 2.5 h (150 min)): 55.96
14-3-3σ full peptide adduct (degree of labeling) ([1]; time 5 h (300 min)): 74.24
14-3-3σ full peptide adduct (degree of labeling) ([1]; time 24 h (1440 min)): 86.25
degree of labeling of 14-3-3σ ([1]; LC/MS, time 0 h): 0
degree of labeling of 14-3-3σ ([1]; time 35 min): 53.08
degree of labeling of 14-3-3σ ([1]; time 70 min): 70.97
degree of labeling of 14-3-3σ ([1]; time 1.75 h): 80.85
degree of labeling of 14-3-3σ ([1]; time 4 h): 93.18
degree of labeling of 14-3-3σ ([1]; time 8 h): 91.76
increase of the rate of labeling at 37 °C ([1]; 37 °C versus 25 °C): roughly 4 fold
labeling of proteins in A549 lysates [2]: formed two main bands

Substance: Ac-RAH-(pT)-SPASL-X-NH2 [Peptide 12, reference compound]
labeling of proteins in A549 lysates [2]: selectively labeled 14-3-3σ and generated a single fluorescent band
detection of 14-3-3 proteins in extracellular medium [3]: 14-3-3σ was not detected

The remaining lines, values ahead:

percent covalent labeling (overnight, 200 µM peptide) [4]: 51%
percent covalent labeling within 5 h [5]: 60%
percent covalent labeling after 48 h [6]: 75%
Substance: Peptide 3 (Ac-RSA-(pT)-(mC)-PSL-NH2)

percent covalent labeling (overnight, 200 µM peptide) [4]: 35%
percent covalent labeling within 5 h [5]: 80%
percent covalent labeling after 48 h [6]: 90%
Substance: Peptide 8 (Ac-RAH-(pT)-(mC)-PASLQ-NH2)

percent covalent labeling (overnight, 200 µM peptide) [4]: 57%
percent free 14-3-3σ remaining within 2.5 h [5]: < 5%
percent covalent labeling after 48 h [6]: 100%
Substance: Peptide 11 (Ac-RAH-(pT)-SPAS-(mC)-Q-NH2)

— publication PMC10692228, “A simple method for developing lysine targeted covalent protein reagents” (Nature Communications, 2023)
